Test results taken from patent US5656637A, “Thiazole derivatives” (Yamanouchi Pharmaceutical Co., Ltd., priority 1990, dated 1997).
Read-outs that look alike come from different tables or passages of the source.

Legend:
[1] = target: T1, 5-HT3 receptor (Rattus norvegicus, UniProt P35563); test: 5-HT3 receptor stimulating action (Bezold-Jarisch reflex evoking action) in anesthetized rat, i.v.; type: in vivo, rat (male Wistar); details: for ED50: iv, read-out: BJ reflex evoking activity ED50
T1 construct: Male Wistar rats, 9 weeks old, were anesthetized with urethane; from tissue; host or cells: whole animal in vivo: anesthetized male Wistar rat (endogenous receptor; tissue not given)
T1 sequence (P35563 24-483): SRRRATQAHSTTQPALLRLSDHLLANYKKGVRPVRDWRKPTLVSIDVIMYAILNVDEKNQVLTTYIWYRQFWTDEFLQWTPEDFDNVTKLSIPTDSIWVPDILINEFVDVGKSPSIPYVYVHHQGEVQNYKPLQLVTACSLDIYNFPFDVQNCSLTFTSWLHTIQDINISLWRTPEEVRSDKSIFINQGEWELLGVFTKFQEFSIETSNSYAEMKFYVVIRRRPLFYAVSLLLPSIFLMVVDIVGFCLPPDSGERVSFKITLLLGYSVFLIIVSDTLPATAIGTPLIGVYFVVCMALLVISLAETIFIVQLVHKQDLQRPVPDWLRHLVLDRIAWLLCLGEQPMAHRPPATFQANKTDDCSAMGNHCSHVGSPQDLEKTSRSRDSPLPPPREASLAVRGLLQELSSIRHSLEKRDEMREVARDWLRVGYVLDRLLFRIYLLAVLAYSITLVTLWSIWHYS
Procedure: Male Wistar rats, 9 weeks old, were anesthetized with urethane 1 g/kg i.p. and the blood pressure and the heart rate were determined under artificial ventilation.
1) 5-HT3 receptor stimulating action (Bezold-Jarisch reflex evoking action)

[2] = target: T1, 5-HT3 receptor; test: Effects of 5-HT3 receptor antagonists on the action of the compound of the present invention (decreases in heart rate and blood pressure); type: in vivo, rat (male Wistar); details: GR38032F 30 μg/kg i.v. or ICS 205-930 0.1-1 μg/kg i.v., 10 minutes before the compound of the present invention
Procedure: Male Wistar rats, 9 weeks old, were anesthetized with urethane 1 g/kg i.p. and the blood pressure and the heart rate were determined under artificial ventilation. […] In addition, it was confirmed by using 5-HT3 receptor antagonists that the changes caused by administration of the compound of the present invention were 5-HT3 receptor-mediated responses.
2) Effects of 5-HT3 receptor antagonists on the action of the compound of the present invention
GR38032F (30 μg/kg i.v.) or ICS 205-930 (0.1-1 μg/kg i.v.), 10 minutes before administration of the compound of the present invention.

Structure (SMILES) | BJ reflex evoking activity Emax (maximal bradycardiac response) ([1]; i.v., anesthetized rat) | Bezold-Jarisch reflex evoking activity, potency relative to serotonin ([1]; i.v., rat, versus serotonin) | ED50 ([1]; anesthetized rat) | inhibition by 5-HT3 receptor antagonist of the decreases in heart rate and blood pressure induced by the compound of the present invention [2] | ED50 ([1]; rat)
COc1ccccc1Nc1nc2c(s1)CN(C)CC2.O=C(O)/C=C/C(=O)O [Example 1, 2-(o-methoxyanilino)-5-methyl-4,5,6,7-tetrahydrothiazolo[5,4-c]pyridine fumarate] | 205.8 beats/min | about 5 fold | 0.00301 mg/kg | – | –
CN1C2CCC1CC(OC(=O)c1c[nH]c3ccccc13)C2 (stereo not shown) [ICS 205-930] | – | – | – | competitively inhibited | –
Cc1nccn1CC1CCc2c(c3ccccc3n2C)C1=O (racemic) [GR38032F] | – | – | – | competitively inhibited | –
Cc1[nH]c2ccc(O)cc2c1CCN [2-Methylserotonin, 2-methylserotonin] | 259.0 beats/min | – | – | – | 0.0374 mg/kg
